Assay results as given in US8697731B2, “Derivatives of 2-pyridin-2-yl-pyrazol-3(2H)-one, preparation and therapeutic use thereof” (Sanofi, priority 2008, dated 2014).

What was measured:
HIF1-alpha = experiment: Measurement of the stabilization of HIF1-alpha in HEKEA cells (beta-galactosidase complementation); assay type: cell-based, human; conditions: HEKEA_HIF1-alphaPLBL cells, 6 hours under normoxia, luminescence; molar concentration that produces 50% of the maximum response of this same compound
From the text: Furthermore, a subject of the invention is also a uniform test for the direct measurement by beta-galactosidase complementation of the amount of HIF1-alpha protein in the nucleus of cells, preferably HEK cells, after treating the said cells with one or more test compounds, which consists in: • (a) inoculating, preferably in 384-well plates, the said cells in a suitable culture medium, preferably 1% foetal calf serum (abbreviated as FCS); • (b) adding the test compound(s) at a suitable concentration in a suitable solvent to the cells previously inoculated in the said culture medium; preferably the test compounds are diluted in 0.1% FCS; • (c) incubating the said cells thus prepared in an indicator at about 37° C., advantageously for about 6 hours; • (d) lysing the cells with a lysis buffer containing a chemiluminescent substrate for beta-galactosidase; • (e) incubating in the absence of light, before reading and measuring the luminescence, which is a function of the beta-galactosidase activity.
The test is a cell test based on the principle of enzyme complementation, the enzyme used herein being beta-galactosidase. HEKEA cells are HEK cells stably expressing, and restricted in their nucleus, mutant beta-galactosidase (omega fragment, also known as EA) (line sold by DiscoverX). This construct makes it possible to obtain beta-galactosidase activity only when the protein comprising the Prolabel complementation fragment has migrated into the nucleus.
The protein of interest comprising the Prolabel fragment is in this case an HIF1-alpha or HIF1-alpha mutated at the two prolines 402 and 564 replaced with alanines, is C-terminal fused via molecular biology (DiscoverX vector sold by Clontech) with the small complementation peptide fragment (Prolabel or ED, about 4 kDa). The vector coding for the chimeric protein HIF1-alpha_Prolabel is then transfected into HEKEA cells to obtain stable clones (HEKEA_HIF1-alphaPLBL).
The amount of C-terminal Prolabel-“labelled” HIF1-alpha protein obtained after treating the cells to hypoxia or compounds that are potentially HIF activators is measured by adding to the cells a lysis buffer containing a chemiluminescent substrate for beta-galactosidase.
The measurement of the beta-galactosidase activity will be proportional to the amount of Prolabel and thus of HIF1-alpha that has migrated into the nucleus of the cells.
1.3.1 Experiment Plan • 1) Inoculation of the cells on D0 • 2) Adherence for 24 hours under normoxia • 3) Preparation and addition of the products (Biomek 2000 and FX) on D+1 • 4) Incubation under normoxia for 6 hours • 5) Reading of the plates (by luminescence)
The cells are inoculated with Multidrop in white, opaque-bottomed 384-well plates (Greiner ref 3704), in 30 μl of culture medium (1% FCS) a 10000 cells/well (cell plate).
The test products are prepared at 3×10^−2 M in 100% DMSO and then diluted to 3×10^−4 M in medium containing 0.1% FCS (10 μl in 990 μl of MEM). They are then deposited by hand into column 12 of a round-bottomed 96-well plate (200 μl of each compound) known as the dilution plate (dl). The complete DL plate of 3×10^−4 M to 10^−9 M is then prepared with Biomek 2000 (programme: range of 10 points in series). For the references and controls, 100 μl of DMEM containing 0.1% FCS are added to column 1, 100 μl of Deferoxamine 10^−3M to column 2, wells A B C D and 100 μl of Deferoxamine 5×10^−3 M to column 2, wells E F G H.
3.3 μL are taken from the DL plate by pipetting with a Biomek FX 96 and placed in horizontal duplicate (columns 1 to 24) in each 384-well cell plate (HEKEA_HIF1-alphaPLBL cell plate).
The cells are then placed for 6 hours in an incubator at 37° C. (ambient O2, 6% CO2).
The kit used is the Prolabel chemiluminescent kit (Ref 93-0001 DiscoverX). […]

EPO = experiment: Measurement of the secretion of EPO by Hep3B hepatocytes (ELISA); assay type: cell-based; conditions: Homo sapiens, supernatant of Hep3B cells, 18 hours under normoxia, concentration that produces 50% of the maximum response of this same compound
Experimental: (§1) The test is an ELISA test for measuring VEGF and EPO in the supernatant of Hep3B cells treated under hypoxia or with deferoxamine as controls or with the potential HIF activators. The test was adapted to a 96-well plate, allowing greater compound screening capacity.
(§2) 2.3.1 Experiment Plan • 1) Inoculation of the cells on D0 • 2) Adherence for 6 hours under normoxia • 3) Preparation and addition of the products (Biomek 2000 and FX) • 4) Incubation under normoxia for 18 hours • 5) EPO and VEGF assay in the supernatant on D+1
(§3) The cells are subcultured into 100 μl of culture medium (10% FCS) in black, opaque-bottomed 96-well plates (reference Costar 3916) at 30000 cells/well, with Multidrop.
(§4) The test products are prepared at 10^−2M in 100% DMSO and then diluted to […] in medium containing 0.1% FCS (6 μl in 194 μl of MEM). 200 μl of each compound are deposited in column 12 of a 96-well plate. Dilution ranges from 3×10^−4M to 3×10^−8M are prepared with Biomek 2000 (programme: range of 9 points in series). 100 μl of MEM 0.1% FCS and Deferoxamine 5×10^−3M are added as controls to column 3 and, respectively, to wells A,B,C,D & wells E,F,G,H
(§5) The medium of the cells inoculated the day before into 96-well plates is changed for 90 μl of medium containing 0.1% FCS and 10 μl are distributed with FX 96 from the 96-well DL plates to the cell plates.
(§6) The cell plates thus treated are placed for 18 hours in an incubator at 37° C. (ambient O2, 6% CO2).
(§7) The supernatants (80 μl) of the Hep3B cells in the 96-well plates treated with the potential HIF activators are recovered with a multichannel pipette for simultaneous assay of the VEGF and the EPO by ELISA according to the supplier's instructions (Kit EPO Mesoscale (ref K15122B-2)).
(§8) The activating activity of a compound with respect to HIF is given by the concentration that produces 50% of the maximum response of this same compound in Table IV.

VEGF = experiment: Measurement of the secretion of VEGF by Hep3B hepatocytes (ELISA); assay type: cell-based; conditions: Homo sapiens, supernatant of Hep3B cells, 18 hours under normoxia, concentration that produces 50% of the maximum response of this same compound
Experimental: as §1, §2, §3, §4, §5, §6, §7, §8

SMILES	EC50 (HIF1-alpha) [nM]	EC50 (EPO) [nM]	melting point [°C]	EC50 (VEGF) [nM]
O=c1c2c([nH]n1-c1ccccn1)CSC2 [Compound 1, 2-pyridin-2-yl-1,2,4,6-tetrahydro-3H-thieno[3,4-c]pyrazol-3-one]	8800	2900	152	3000
O=c1c2c([nH]n1-c1ccc(S(=O)(=O)N3CCCC3)cn1)CSC2 [Compound 15, 2-[5-(pyrrolidin-1-ylsulfonyl)pyridin-2-yl]-1,2,4,6-tetrahydro-3H-thieno[3,4-c]pyrazol-3-one]	16000	2800	152	3000
CC(C)(C)NS(=O)(=O)c1ccc(-n2[nH]c3c(c2=O)CSC3)nc1 [Compound 18, N-tert-butyl-6-(3-oxo-4,6-dihydro-1H-thieno[3,4-c]pyrazol-2(3H)-yl)pyridine-3-sulfonamide]	4400	500	257	400
CCN(c1ccccc1)S(=O)(=O)c1ccc(-n2[nH]c3c(c2=O)CN(C(=O)OC(C)(C)C)CC3)nc1 [Compound 28, tert-butyl 2-[5-[ethyl(phenyl)sulfamoyl]pyridin-2-yl]-3-oxo-1,2,3,4,6,7-hexahydro-5H-pyrazolo[4,3-c]pyridine-5-carboxylate]	1600	1000	192	1000
O=c1c2c([nH]n1-c1ccc(S(=O)(=O)NC3CCCC3)cn1)CSC2 [Compound 20, N-cyclopentyl-6-(3-oxo-4,6-dihydro-1H-thieno[3,4-c]pyrazol-2(3H)-yl)pyridine-3-sulfonamide]	3400	1000	> 260	900
CCN(c1ccccc1)S(=O)(=O)c1ccc(-n2[nH]c3c(c2=O)CN(C(C)=O)CC3)nc1 [Compound 29, 6-(5-acetyl-3-oxo-1,3,4,5,6,7-hexahydro-2H-pyrazolo[4,3-c]pyridin-2-yl)-N-ethyl-N-phenylpyridine-3-sulfonamide]	2500	2500	118	2600
CCN(c1ccccc1)S(=O)(=O)c1ccc(-n2[nH]c3c(c2=O)COCC3)nc1 [Compound 25, N-ethyl-6-(3-oxo-1,4,6,7-tetrahydropyrano[4,3-c]pyrazol-2(3H)-yl)-N-phenylpyridine-3-sulfonamide]	3300	2400	164	2500
CN(c1ccccn1)S(=O)(=O)c1ccc(-n2[nH]c3c(c2=O)CSC3)nc1 [Compound 21, N-methyl-6-(3-oxo-4,6-dihydro-1H-thieno[3,4-c]pyrazol-2(3H)-yl)-N-pyridin-2-ylpyridine-3-sulfonamide]	8700	1400	226	2400
CCN(c1ccccc1)S(=O)(=O)c1ccc(-n2[nH]c3c(c2=O)CSCC3)nc1 [Compound 13, N-ethyl-6-(3-oxo-1,4,6,7-tetrahydrothiopyrano[4,3-c]pyrazol-2(3H)-yl)-N-phenylpyridine-3-sulfonamide]	5200	900	176	1000
